# Source: patent US20230089267A1, “Compositions and Methods For Reducing Immune Intolerance and Treating Autoimmune Disorders” (Lapix Therapeutics, Inc., priority 2021, published 2023)
# What was measured:
# [1] = system: Foxp3+/CD4+ T-cells of MS patients; assay: PBMCs of multiple sclerosis patients treated ex vivo; format: cell-based, human; conditions: up to 2.5 μM, five days, six subjects
# Procedure: Total human PBMCs were isolated from six subjects with confirmed diagnosis of MS. On Day 0, 2×10^5 cells/well were incubated in a 96 round bottomed-well plate alone or with up to 2.5 μM Compound 2 for five days. On Day 5, cells were collected, washed and stained for surface staining (CD3, CD4), then viability dye to exclude dead cells. Intranuclear staining was performed after cell fixation and permeabilization for transcription factor FoxP3. Cells were washed and fixed for acquisition by Attune NXT flow cytometer. Data were analyzed by FlowJov10.
# [2] = system: FoxP3+/CD4+ T-cells in splenocytes from naïve C57BL/6 mice; assay: In vitro dose-response, percent FoxP3+/CD4+ T-cells in murine splenocytes; format: cell-based
# Procedure: All animal studies were conducted under IACUC number B2020-91 and in compliance with Tufts University/Tufts Medical Center & Human Nutrition Research Center on Aging. Animals were housed four in a cage and had access to food and water ad libitum. Anti-FoxP3 and anti-CD4 for flow cytometry were obtained from eBioscience. Compounds 1-3 were formulated with 10% DMPC in PBS. PS liposomes were synthesized at a 30:70 PS:lipid molar ratio.
# Splenocytes from naïve C57BL/6 mice were stained with CFSE, seeded at 2×10^5 cells/well, and dosed with each compound from 1e^−4 μM to 3.0e^−9 μM using a log 2 dilution scheme. Cells were incubated for 72 hours before phenotyping for FoxP3+/CD4+ T-cells. Flow cytometer analysis was performed to assess changes in percent FoxP3+/CD4+ T-cells as a function of compound and dose. Concentration versus response was fitted to a 4-parameter, log-logistic model using the “dre” package in “R”. Both EC50 and EC90 were obtained by model fitting.
# Cells were observed via a microscope at the end of the incubation period. All cells looked healthy and suitable for flow cytometry analysis.
# Table 2 summarizes EC50 and EC90 values obtained from the model fitting.
# [3] = Pilot stability study of oral solution with HPBCD; format: physicochemical
# Procedure: Oral dosing solutions of different concentrations of Compound 2 were compounded ranging from 0.02 mg/ml to 3 mg/ml using a 1:80 ratio of Compound 2:HPBCD. Briefly, the compounding was performed by weighing and dissolving HPBCD in sterile HPLC grade water. Then, Compound 2 was weighed and added to the HPBCD solution in an appropriate container. To enhance dissolution, sonication and magnetic stirring were alternated to obtain a clear solution. Then, the solution was dispensed into PET amber bottles, appropriately labeled and stored under refrigeration until dosing.
# A pilot stability study was performed on a 0.7 mg/ml Compound 2 oral solution at three temperatures: −20° C., 4° C., and room temperature (RT).
# Samples were also subjected to three freeze-thaw cycles (−20° C. to room temperature). Solutions were evaluated for clarity. […] The potency of these solutions was also determined using an LC/MS assay.
# [4] = system: MOG35-55-induced murine EAE model; assay: Induction/maintenance treatment paradigm in MOG35-55-induced murine EAE model (Example 9); format: in vivo, mice
# Procedure: Compound 2, natalizumab and DMF were prepared as described in Example 8. Table 5 (see Example 4) details the expected clinical symptoms and scoring criteria used in this study.
# This study was designed to evaluate the therapeutic effects of Compound 2 versus natalizumab in a treatment induction/maintenance paradigm (induction cohort), and Compound 2 versus DMF after natalizumab (maintenance cohort). In the induction cohorts, animals were randomized 2:1:1 natalizumab:Compound 2:control when they reached a score of 2.5, as per FIG. 6A. Animals in the natalizumab cohort were given 100 μg natalizumab/mouse every 3 days for 3 doses before being randomized to the maintenance cohort. Animals randomized into the maintenance cohort after natalizumab received maintenance doses of DMF or Compound 2 (1:1 randomization), as per their group assignment for 14 days. Animals in the Compound 2 induction cohort were dosed with 30 μg Compound 2/mouse SC QD for a maximum of 7 days, or 3 consecutive days of disease score <2.5, at which time they were placed on a maintenance dose of 3 μg/mouse SC QD for 14 days. All animals in all groups were monitored for 14 days after the last dose for disease score and survival.
# Disease control (induction therapy): Disease control was defined as maintaining a clinical score of 2.5 or less after randomization. Animals in the different treatment groups were monitored after the 2:1:1 randomization. Clinical scores were recorded daily for all animals and plotted over time. A score of >2.5 was recorded as an event and analyzed by survival analysis in GraphPad Prism 9. Animals not reaching a clinical score of 2.5 by the end of the induction period (day 7) were assigned a score of zero for the survival analysis.
# Survival (induction therapy): Death due to disease (clinical score 5) during the treatment induction period was recorded as an event “1”, animals surviving until the end of the induction period, day 7 after randomization, were censored on day 7 for the purposes of survival analysis.
# Disease control (maintenance therapy): At the end of the induction period with natalizumab, animals were randomized 1:1 to the DMF maintenance group or Compound 2 maintenance group as per FIG. 6A. Animals were dosed for 14 days, and clinical scores were monitored daily.
# Survival (maintenance therapy): Death by disease (clinical score of 5) was recorded as an event “1”, death due to ulceration or ex vivo analysis was recorded as “0”. Animals surviving until the end of the study were recorded as “0” on the last day of the study. Survival analysis was done in GraphPad Prism 9.
# Th17 (RORγt) cells = assay: Human PBMCs in Th17 polarizing environment, Foxp3 and RORγt expression; format: cell-based
# Procedure: Total human PBMCs isolated from healthy human volunteers were cultured in vitro in a Thl7 polarizing environment as follows: • Day 0: 2×10^5 cells/well were incubated in a 96 round bottomed-well plate (final volume 200 μl) with (i) anti CD3/CD28 microbead for T-cell activation (1 bead/10 cells), (ii) 10 ng/ml IL-6, 2 ng/ml TGFβ and 10 ng/ml IL-23, and (iii) 10 μg/ml anti-IFNγ and 10 μg/ml anti-IL-4. • Day 4: Each well was split into two wells, and 100 μl of media containing the same cytokine/antibody cocktail used at day 0 was added to each well in the presence of ascending doses of Compound 2 (0, 0.1, 0.3, 1, and 3 ng/ml). • Day 9: Cells were washed and stained for surface staining (CD3, CD4), then viability dye to exclude dead cells. Intranuclear staining was performed after cell fixation and permeabilization for transcription factors Foxp3 and RORγt. Cells were washed and fixed for acquisition by Attune NXT flow cytometer. Data were analyzed by FlowJov10.
# [5] = Mus musculus, T-cell, percent FoxP3+/CD4+ T-cells, 72 hours, 4-parameter log-logistic model fit
# [6] = Compound 2 induction followed by Compound 2 maintenance
compound,measurement,setting,value
"N[C@@H](CNC(=O)Cc1ccc(OCc2cccc3ccccc23)cc1)C(=O)O [Compound 2, (S)-2-Amino-3-(2-(4-(naphthalen-1-ylmethoxy)phenyl)acetamido)propanoic acid]",MS patients whose T-cells responded (increase in percentage of Foxp3+/CD4+ T-cells),[1],five out of six
same,EC50,[2]; [5],6.02 pM
same,EC90,[2]; [5],0.0199 nM
same,"mean FoxP3+/CD4+ T-cells, upper plateau, mean (SEM)","[2]; high dose, from model fitting",4.54 (0.14) %
same,dose-response behaviour of FoxP3+/CD4+ T-cells,[2]; in words,showed a clear plateau
same,"mean FoxP3+/CD4+ T-cells, lower plateau, mean (SEM)","[2]; low dose, from model fitting",2.20%
same,potency on storage,"[3]; 0.7 mg/ml oral solution, −20° C., 4° C. and room temperature",Potency was maintained over a minimum period of three months at all storage conditions
same,"potency after storage and freeze-thaw cycles, LC/MS assay",[3]; 3-month storage and several freeze-thaw cycles,Potency was maintained
same,clarity after three freeze-thaw cycles,"[3]; oral solution, −20° C. to room temperature","No precipitation was observed, and all solutions maintained clarity"
same,clinical score on the last day of dosing,[4]; [6],2.2 (SD=0.3)
same,mean score on the first day of maintenance therapy,[4]; [6],2.3 (SD=0.4)
same,mice showing clinical score improvement and switched to maintenance before end of induction period,[4]; induction period,at least 4 out of the 10
same,animals that survived the treatment induction period,"[4]; induction period, day 7 after randomization",9/9
same,"last measured score, day 7 after initiation of maintenance",[4]; maintenance after natalizumab induction,2.5 (SD=0)
same,mortality rate in maintenance cohort,"[4]; maintenance after natalizumab induction, n=4 in each group",0%
same,survival in maintenance cohort,"[4]; maintenance after natalizumab induction, to end of study",All animals randomized to Compound 2 maintenance after natalizumab induction survived until the end of the study
same,mean clinical score by day 7 of induction,"[4]; randomized at score 2.5, Compound 2 30 μg SC",2.25 (SD=0.26)
same,animals that progressed to a clinical score >2.5 during induction,"[4]; randomized at score 2.5, natalizumab 100 μg/mouse every 3 days, Compound 2 30 μg SC",0/10
same,decrease in RORγt cells,Th17 (RORγt) cells,80%
same,"percentage of Th17, mean after treatment",Th17 (RORγt) cells,1.1%
